Data: publication PMC3226453, “Targeting the Wolbachia Cell Division Protein FtsZ as a New Approach for Antifilarial Therapy” (PLoS Neglected Tropical Diseases, 2011)

Legend:
[1] = target: T1, Ec-FtsZ (Escherichia coli, UniProt P0A9A6); test: enzyme-coupled GTPase assay, dose response; format: biochemical
T1 construct: N-terminal His tag, from strain MG1655
T1 sequence (P0A9A6 1-383): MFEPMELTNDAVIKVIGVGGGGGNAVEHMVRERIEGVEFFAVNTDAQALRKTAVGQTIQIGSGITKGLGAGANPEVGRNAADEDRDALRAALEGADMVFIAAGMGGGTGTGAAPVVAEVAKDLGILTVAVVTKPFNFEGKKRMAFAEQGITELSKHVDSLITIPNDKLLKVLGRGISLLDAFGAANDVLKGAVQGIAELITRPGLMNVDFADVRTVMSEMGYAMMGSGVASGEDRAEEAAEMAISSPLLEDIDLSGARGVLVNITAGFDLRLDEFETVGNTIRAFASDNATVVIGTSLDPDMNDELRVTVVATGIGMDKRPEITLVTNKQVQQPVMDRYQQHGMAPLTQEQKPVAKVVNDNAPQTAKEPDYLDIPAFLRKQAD

[2] = target: T1, Ec-FtsZ; test: enzyme-coupled GTPase assay, specific activity; format: biochemical
[3] = target: T1, Ec-FtsZ; test: enzyme-coupled (PK/LDH, NADH) GTPase assay; format: biochemical
[4] = target: T2, (UniProt Q5GS34); test: enzyme-coupled (PK/LDH, NADH) GTPase assay; format: biochemical, Wolbachia endosymbiont of Brugia malayi
T2 construct: gene ftsZ; full-length, N-terminal His6 tag
T2 sequence (Q5GS34 1-396 limits assumed): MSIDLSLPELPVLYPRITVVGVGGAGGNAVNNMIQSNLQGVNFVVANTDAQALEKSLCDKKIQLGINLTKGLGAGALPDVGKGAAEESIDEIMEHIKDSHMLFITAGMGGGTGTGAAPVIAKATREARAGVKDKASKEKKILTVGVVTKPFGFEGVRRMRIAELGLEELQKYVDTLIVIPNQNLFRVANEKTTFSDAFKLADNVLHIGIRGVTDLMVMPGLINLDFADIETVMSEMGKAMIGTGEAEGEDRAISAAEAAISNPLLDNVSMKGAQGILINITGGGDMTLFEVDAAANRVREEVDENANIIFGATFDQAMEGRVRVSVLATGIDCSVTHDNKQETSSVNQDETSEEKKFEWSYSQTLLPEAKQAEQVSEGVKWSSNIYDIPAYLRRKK

## COc1ccc(-c2ccc(C(C(=O)NC3CCCCC3)N(Cc3ccccn3)C(=O)c3ccccc3)cc2)cc1 (centres unmarked) [AV-C6]
[1]
  enzyme-coupled GTPase assay, dose response: both compounds inhibited Ec-FtsZ activity although each was slightly less potent

## Nc1nc2c(ncn2[C@@H]2O[C@H](COP(=O)(O)OP(=O)(O)OP(=O)(O)O)[C@@H](O)[C@H]2O)c(=O)[nH]1 [GTP]
[2]
  enzyme-coupled GTPase assay, specific activity: 0.22 ± 0.015 µmol/min/mg

## CCCCNC(=O)C(c1ccc2cc(O)ccc2c1)N(Cc1ccc(Cl)cc1)C(=O)CCC (centres unmarked) [N938]
[1]
  enzyme-coupled GTPase assay, dose response: both compounds inhibited Ec-FtsZ activity although each was slightly less potent

## COc1ccc2cc3[n+](cc2c1OC)CCc1cc2c(cc1-3)OCO2 [berberine]
[3]
  IC50: 240 µM
[4]
  IC50: 320 µM
